Laboratory results taken from patent US6310037A, “Method of controlling protozoan infections using syringomycin-family lipodepsipeptides” (Utah State University, priority 1999, dated 2001).
In brackets after ≈: the same amount, converted by molar mass. Where two headings read alike, the source gives them in different places. Where a SMILES comes first, the peptide text is derived from it. Bridges are numbered along the chain shown (N, C = ends). [ ]: non-standard residue; d: D form. The star is where a group is joined. Asp(3S-OH) = N[C@H](C(=O)O)[C@H](O)C(=O)O; Thr(4-Cl) = N[C@H](C(=O)O)[C@H](O)CCl; X1 = CCCCCCCCC[C@@H](O)CC(=O)*; dDab = NCC[C@@H](N)C(=O)O; Dab = NCC[C@H](N)C(=O)O; Dhb = C/C=C(\N)C(=O)O

Tests used:
[1] = tested on: C. parvum; test: C. parvum development in BFTE cell culture at pH 6.3; format: cell-based, C. parvum (bovine isolate); settings: BFTE cells, pH 6.3, day 2 post inoculation
Protocol: C. parvum (bovine isolate) oocysts used in this study were originally donated by the U.S. Department of Agriculture, Ames, Iowa. The oocysts were isolated from calf manure, preserved in 2.5% potassium dichromate at 4° C., and used within 3 months of purification. Oocysts were decontaminated by suspension in 20% (vol/vol) 1.05% sodium hypochlorite on ice for 20 minutes. Oocysts were then washed three times in Hanks' balanced salt solution ("HBSS") and once in RPMI 1640 (available from Sigma, St. Louis, Mo.). Release of sporozoites was achieved by incubating oocysts in an excystation solution consisting of 0.25% (wt/vol) trypsin (available from Sigma, St. Louis, Mo.) and 0.75% (wt/vol) taurodeoxycholic acid (available from Sigma) in HBSS. The resulting suspension was incubated at 37° C. for 45 minutes and microscopically observed to confirm sporozoite release. Sporozoites were completely separated from intact oocysts and oocyst walls by passage through sterile polycarbonate filters (3 micron pore size, available from Millipore Corp., Bedford, Mass.) twice prior to inoculation of bovine fallopian tube epithelial ("BFTE") cell monolayers.
Primary BFTE cell cultures were prepared from bovine fallopian tubes (FT). […]
The inhibitory effect of Syr-E on C. parvum development was monitored in BFTE cell culture at pH 6.3. […]

[2] = tested on: L. donovani; format: cell-based; settings: pH 5.5, 72 hours
Protocol: L. donovani parasites (WHO designation: MHOM/SD/62/1S-CL2D) used in this study were originally donated by the National Institutes of Health. These parasites were maintained as axenic amastigote-like forms by serial passage at 37°C. in a humid atmosphere containing 5% CO2 using a slightly modified version of the medium described by Joshi et al., Cloning and characterization of differentially expressed genes from in vitro-grown `amastigotes` of Leishmania donovani. Molecular and Biochemical Parasitology, 1993. 58: p. 345-354, the contents of which are incorporated herein by this reference.
L. donovani amastigote-like forms were seeded at 10^6 cells/ml in 96-well flat-bottom plates (Costar) in the amastigote medium described above in the presence or absence of drugs. The final volume in each well was 60 μl. Wells containing control parasites included 1% DMSO, the maximum concentration of the vehicle found in drug-containing samples. Plates were incubated at 37° C. in a humid 5% CO2 atmosphere for 72 hours, then 12 μl of the aqueous CellTiter solution (Promega) was added to each well according to the instructions of the manufacturer. Plates were returned to the 37° C. incubator for a further 4-5 hours, then the absorbance of each well was measured at 490 nm using a SpectraMax Plus plate reader (Molecular Devices, Sunnyvale, Calif.). IC50 values for each of the drugs (the concentration of drug that inhibited the growth of parasites by 50% compared to controls) was determined with the aid of the program SoftMax Pro (Molecular Devices). The log dose response equation y=((a-d)/(1+(x/c)^b))+d was used to calculate IC50 values, where x=drug concentration, y=absorbance at 490 nm, a=upper asymptote, b=slope, c=IC50, and d=lower asymptote.
Activity of Syr-E against L. donovani was determined using a cell-free amastigote culture technique that included the uptake of a vital dye (Cell Titer solution, Promega Corporation) as a measure of parasite viability at 72 hours post inoculation. OD values for serial dilutions of Syr-E were transformed as described for the malaria screen (Example VII) to determine IC50 values against Leishmania. The amastigote assay was performed at a pH of 5.5, which is favorable for Syr-E activity.

`C/C=C1\NC(=O)[C@H](Cc2ccccc2)NC(=O)[C@H](CCCNC(=N)N)NC(=O)[C@H](CCN)NC(=O)[C@@H](CCN)NC(=O)[C@@H](CO)NC(=O)[C@@H](NC(=O)C[C@H](O)CCCCCCCCC)COC(=O)[C@H]([C@H](O)CCl)NC(=O)[C@H]([C@H](O)C(=O)O)NC1=O` [Syr-E, Syringomycin-E] (X1-S[dS][dDab][Dab]RF[Dhb][Asp(3S-OH)][Thr(4-Cl)]; ester 1-C) was tested, and the “infection percentage vs lower Syr-E concentrations (0.5 to 3.0 μg/ml)” value ([1]; Syr-E 9.0 μg/ml) was “further reduced the infection percentage significantly (P<0.01)”, the “infection percentage vs non-treated controls” value ([1]; Syr-E 0.5, 1.0, 3.0 and 9.0 μg/ml) was “significantly (at least P<0.01) reduced the infection percentage” and the “OD Values” ([2]; Sample 1, Concentration 4.00000 (unit not given)) was 0.099. For the same compound, the “OD Values” ([2]; Sample 2, Concentration 2.00000 (unit not given)) was 0.097, the “OD Values” ([2]; Sample 3, Concentration 1.00000 (unit not given)) was 0.090 and the “OD Values” ([2]; Sample 4, Concentration 0.50000 (unit not given)) was 0.089. The “OD Values” ([2]; Sample 5, Concentration 0.25000 (unit not given)) was 0.090, the “OD Values” ([2]; Sample 6, Concentration 0.12500 (unit not given)) was 0.102 and the “OD Values” ([2]; Sample 7, Concentration 0.06250 (unit not given)) was 0.678. For the same compound, the “OD Values” ([2]; Sample 8, Concentration 0.03125 (unit not given)) was 0.664, the “OD Values” ([2]; Sample 9, Concentration 0.01563 (unit not given)) was 0.709 and the “OD Values” ([2]; Sample 10, Concentration 0.00781 (unit not given)) was 0.652. The “OD Values” ([2]; Sample 11, Concentration 0.00391 (unit not given)) was 0.672 and the IC50 ([2]; amastigote assay) was 0.10115 mg/L (≈ 0.0825 µM).
